Where a name gives a salt, the structure may show the parent alone.
What was measured:
[1] = system: purified DHFR of the multi-resistant strain S. aureus 157/4696; experiment: Inhibition of purified DHFR of multi-resistant strain S. aureus 157/4696; type: biochemical; conditions: determined graphically
Protocol: The inhibition of the enzyme was taken as a measurement for the antibacterial activity. It is determined using the method of Baccanari and Joyner (Biochemistry 20, 1710 (1981)); see also P. G. Hartman et al., FEB 242, 157-160 (1988).
The IC50 values (concentration at which the enzyme is inhibited to 50%) are determined graphically.
The following Table contains inhibitory concentrations determined in the above test for representative members of the class of compound defined by formula I. The C50 values (μM) are given against the purified DHFR of the reference strain S. aureus ATCC 35923 as well as against the purified DHFR of the multi-resistant strain S. aureus 157/4696. […] The inhibition constants of trimethoprim are also given as a comparison.

[2] = target: T1, purified DHFR of the opportunistic pathogen P. carinii (Pneumocystis carinii, UniProt P16184); experiment: biochemical; conditions: determined graphically
T1 sequence (P16184 1-206): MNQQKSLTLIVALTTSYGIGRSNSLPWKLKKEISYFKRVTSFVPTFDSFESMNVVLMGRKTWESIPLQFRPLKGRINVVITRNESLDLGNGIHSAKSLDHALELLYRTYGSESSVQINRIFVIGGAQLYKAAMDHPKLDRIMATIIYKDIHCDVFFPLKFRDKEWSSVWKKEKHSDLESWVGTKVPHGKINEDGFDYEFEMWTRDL

[3] = target: purified DHFR of the reference strain S. aureus ATCC 25923 (Staphylococcus aureus, UniProt P0A017); experiment: Inhibition of purified DHFR of reference strain S. aureus ATCC 25923; type: biochemical
purified DHFR of the reference strain S. aureus ATCC 25923, sequence (P0A017 whole entry): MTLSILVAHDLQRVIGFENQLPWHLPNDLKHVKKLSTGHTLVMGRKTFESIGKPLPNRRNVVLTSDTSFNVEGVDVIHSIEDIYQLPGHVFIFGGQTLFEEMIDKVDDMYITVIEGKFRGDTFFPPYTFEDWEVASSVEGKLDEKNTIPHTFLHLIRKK

Compound | IC50 [1] | IC50 [2] | IC50 [3]
COc1cc(Cc2cnc(N)nc2N)cc(-c2ccc3ccccc3c2)c1OC [Example 4h, 5-(3,4-dimethoxy-5-naphthalen-2-yl-benzyl)pyrimidine-2,4-diamine] | 1300 nM | 1600 nM | 2.2 nM
COc1cc(Cc2cnc(N)nc2N)cc(-c2cccc(O)c2)c1OC [Example 5b, 5-(3'-hydroxy-5,6-dimethoxy-biphenyl-3-ylmethyl)-pyrimidine-2,4-diamine] | 2200 nM | 2300 nM | 4 nM
COc1cc(Cc2cnc(N)nc2N)cc(-c2ccc(C(=O)O)cc2)c1OC [Example 5c, 5-(4'-carboxyl-5,6-dimethoxy-biphenyl-3-ylmethyl)-pyrimidine-2,4-diamine hydrochloride] | 420 nM | 480 nM | 0.9 nM
COc1cc(Cc2cnc(N)nc2N)cc(-c2ccc3cc(O)ccc3c2)c1OC [Example 5h, 5-(3,4-dimethoxy-5-naphthalen-6-hydroxy-2-yl-benzyl)-pyrimidine-2,4-diamine] | 500 nM | 1000 nM | 1.3 nM
COc1cc(Cc2cnc(N)nc2N)cc(-c2cc3c(cc2F)c(=O)c(C(=O)O)cn3C2CC2)c1OC [Example 9a, 1-cyclopropyl-7-[5-(2,4-diaminopyrimidin-5-ylmethyl)-2,3-dimethoxy-phenyl]-6-fluoro-1,4-dihydro-4-oxo-quinoline-3-carboxylic acid trifluoroacetate] | 50 nM | 19 nM | 0.9 nM
COc1ccc(Cc2cnc(N)nc2N)cc1-c1cc2c(cc1F)c(=O)c(C(=O)O)cn2C1CC1 [Example 9b, 1-cyclopropyl-7-[5-(2,4-diamino-pyrimidin-5-ylmethyl)-2-methoxy-phenyl]-6-fluoro-1,4-dihydro-4-oxo-quinoline-3-carboxylic acid trifluoroacetate] | 110 nM | 38 nM | 0.2 nM
Nc1ncc(Cc2cccc(-c3cc4c(cc3F)c(=O)c(C(=O)O)cn4C3CC3)c2)c(N)n1 [Example 9c, 1-cyclopropyl-7-[5-(2,4-diamino-pyrimidin-5-ylmethyl)-phenyl]-6-fluoro-1,4-dihydro-4-oxo-quinoline-3-carboxylic acid] | 210 nM | 200 nM | 1.9 nM
COc1cc(Cc2cnc(N)nc2N)cc(C=Cc2ccc3ccccc3c2)c1OC [Example 10b, 5-[3,4-dimethoxy-5-(2-naphthalen-2-yl-vinyl)-benzyl]-pyrimidine-2,4-diamine] | 750 nM | 4000 nM | 20 nM
CCOC(=O)c1cn(CC)c2cc(C#Cc3cc(Cc4cnc(N)nc4N)cc(OC)c3OC)ccc2c1=O [Example 12g, ethyl 1-ethyl-7-[5-(2,4-diamino-pyrimidin-5-ylmethyl)-2,3-dimethoxy-phenylethynyl]-4-oxo-1,4-dihydro-quinoline-3-carboxylate] | 130 nM | 900 nM | 5 nM
COc1cc(Cc2cnc(N)nc2N)cc(C#Cc2ccc3ccccc3c2)c1OC [Example 15a, 5-[3,4-dimethoxy-5-(naphthalen-2-ylethynyl)-benzyl]-pyrimidine-2,4-diamine] | 700 nM | 8000 nM | 15 nM
COc1cc(Cc2cnc(N)nc2N)cc(C#Cc2ccc3c(=O)c(C(=O)O)cn(C(C)(C)C)c3c2)c1OC [Example 16ac, 1-tert-butyl-7-[5-(2,4-diamino-pyrimidin-5-ylmethyl)-2,3-dimethoxy-phenylethynyl]-4-oxo-1,4-dihydro-quinoline-3-carboxylate hydrochloride] | 1.6 nM | 190 nM | 0.9 nM
COc1cc(Cc2cnc(N)nc2N)cc(C#Cc2c(F)cc3c(=O)c(C(=O)O)cn(C4CC4)c3c2F)c1OC [Example 16c, 1-cyclopropyl-7-[5-(2,4-diamino-pyrimidin-5ylmethyl)-2,3-dimethoxy-phenylethynyl]-6,8-difluoro-1,4-dihydro-4-oxo-quinoline-3-carboxylic acid hydrochloride] | 2.4 nM | 36 nM | 1.2 nM
COc1cc(Cc2cnc(N)nc2N)cc(C#Cc2cc3c(cc2F)c(=O)c(C(=O)O)cn3C2CC2)c1OC [Example 16e, 1-cyclopropyl-7-[5-(2,4-diamino-pyrimidin-5-ylmethyl)-2,3-dimethoxy-phenylethynyl]-6-fluoro-4-oxo-1,4-dihydro-quinoline-3-carboxylic acid trifluoroacetate] | 80 nM | 3400 nM | 2.9 nM
CCn1cc(C(=O)O)c(=O)c2cc(F)c(C#Cc3cc(Cc4cnc(N)nc4N)cc(OC)c3OC)cc21 [Example 16f, 1-ethyl-7-[5-(2,4-diamino-pyrimidin-5-ylmethyl)-2,3-dimethoxy-phenylethynyl]-6-fluoro-4-oxo-1,4-dihydro-quinoline-3-carboxylic acid hydrochloride] | 6.5 nM | 280 nM | 1.5 nM
COc1cc(Cc2cnc(N)nc2N)cc(C#Cc2ccc3cc(C(=O)O)ccc3c2)c1OC [Example 16j, 6-[5-(2,4-diamino-pyrimidin-5-ylmethyl)-2,3-dimethoxy-phenylethynyl]-naphthalene-2-carboxylic acid hydrochloride] | 24 nM | 5000 nM | 0.9 nM
COc1cc(Cc2cnc(N)nc2N)cc(C#Cc2ccc3c(=O)c(C(=O)O)cn(Cc4ccccc4)c3c2)c1OC [Example 16p, hydrochloride] | 1.3 nM | 140 nM | 1.2 nM

Reference: patent publication US5763450A, “Substituted benzyl pyrimidines” (Hoffmann-La Roche Inc., priority 1994, dated 1998)
